# Data as given in patent publication US20160095343A1, “Synbiotic Product” (Tate & Lyle Ingredients Americas LLC, priority 2010, published 2016).
# Experiments:
# Format in all cases: cell-based
# [1] = system: B. coagulans strain GBI-30; test: Comparison of maximum growth of B. coagulans on various carbohydrates (Example 2); conditions: carbohydrate at ~10 g/L, against no added carbohydrates
# From the text: The maximum growth of probiotic B. coagulans strain GBI-30 (ATCC Designation Number PTA-6086; U.S. Pat. No. 6,849,256) (Ganeden Biotech, Inc.; Mayfield Heights, Ohio) was compared on the carbohydrates arabinoxylan, xylose, and dextrose at ˜10 g/L and against addition of no carbohydrates (FIG. 2).
# B. coagulans = test: Growth of probiotic Bacillus on prebiotic carbohydrates (Example 1); conditions: carbohydrate at 10 g/L
# Procedure: (§1) Four commercial spore-forming probiotic Bacillus strains were grown on prebiotic carbohydrates at 10 g/L. (See FIG. 1). The four strains were B. pumilus, B. licheniformis, B. subtilis, and B. coagulans. The prebiotic carbohydrates were high molecular weight arabinoxylan (AX), xylose (X), soluble fiber dextrin (waxy) (SFDw), soluble corn fiber (85) (SCF), and polydextrose (PDX). As a measure of the significance of the data shown in FIG. 1, Table 1 indicates P values for the B. coagulans data.
# B. pumilus = test: as above; conditions: carbohydrate at 10 g/L
# Procedure: as §1
# B. licheniformis = test: as above; conditions: carbohydrate at 10 g/L
# Procedure: as §1
# B. subtilis = test: as above; conditions: carbohydrate at 10 g/L
# Procedure: as §1
structure (smiles),measurement,setting,value
O=C[C@H](O)[C@@H](O)[C@H](O)CO [xylose],maximum growth of B. coagulans strain GBI-30 on the carbohydrate,[1],strong growth
same,growth of B. coagulans on the prebiotic carbohydrate,B. coagulans,grew
same,growth of B. pumilus on the prebiotic carbohydrate,B. pumilus,did not appear able to grow
same,growth of B. licheniformis on the prebiotic carbohydrate,B. licheniformis,limited growth
same,growth of B. subtilis on the prebiotic carbohydrate,B. subtilis,grew
